“And” between values parts separate entries of the source, which are not always exact repeats. Equal entries are not always repeated.

Format in all cases: cell-based
One experiment concerns mouse splenocytes. As to the kind of experiment: IL-2 levels in supernatants of cultured mouse splenocytes (WT or GPR174-KO) stimulated with anti-CD3 and anti-CD28, MSD platform. The conditions noted are these: 2 days. The protocol:
To make single cell suspensions from mouse splenocytes, spleens were cut into 1-2 mm^3 pieces with a razor blade and incubated at 37° C. with 10 μg/mL DNase and 1 mg/mL Collagenase D with agitation for 90 min. Spleen fragments and cells were then pressed through a nylon screen, and the resulting cell suspension was washed. In 96-well flat-bottom plates, splenocytes were cultured in quadruplicate with the following conditions for 2 days, after which supernatants were tested for cytokine levels with the MSD platform.
Anti-CD3 (clone 2C11; 0.1 μg/mL)
GPR174 inhibitor (compound 10, 1 μM or 0.3 μM, or DMSO vehicle control)
GPR174 inhibitor (compound 6, 0.3 μM, or DMSO vehicle control)
Adenosine receptor agonist (NECA, 0.1 μM)

The test system of a further experiment is human PBMCs. As to the kind of experiment: Cytokines in supernatants of anti-CD3/anti-CD28 stimulated human PBMC (Examples 6, 8, 9). The conditions noted are these: for IL-2 in culture supernatants (fold over vehicle): day 2 post-stimulation, compound 10 at 1, 3, 10 μM. The protocol: The effect of compound 10 on IL-2 and IFN-γ production in human PBMCs was determined as follows. PBMCs from a single donor were adjusted to a density of 2×10^6 cells/mL, stimulated with 100 ng/mL of anti-CD3 and 100 ng/mL of anti-CD28 antibodies and treated with 1 μM, 3 μM, or 10 μM of compound 10. Supernatant from these cells was taken on day 2 post-stimulation and the levels of IL-2 and IFN-γ were determined by ELISA assay using Ready-SET-Go ELISA kits from Affimetrix Ebioscience according to the manufacturer's instructions.
The effect of compound 10 on IL-2 production in human PBMCs was determined as follows. […] Supernatant from these cells was taken on day 3 post-stimulation and the levels of IL-2 were determined by ELISA assay using Ready-SET-Go™ ELISA kits from Affimetrix Ebioscience and LEGENDplex™ bead-based immunoassays from BioLegend according to the manufacturer's instructions.
The effect of compound 10 on IL-2 production in human PBMC from each donor was determined as follows. PBMC from each donor were adjusted to a density of 2×10^6 cells/mL, stimulated with 100 ng/mL of anti-CD3 and 100 ng/mL of anti-CD28 antibodies and treated with 30 μM compound 10. Supernatant from these cells was taken on day 2 post-stimulation and the levels of IL-2 were determined by ELISA assay using LEGENDplex™ bead-based immunoassays from BioLegend (San Diego, Calif.) according to the manufacturer's instructions.
The effect of compound 10 on the production of a panel of additional cytokines (interleukin 5 (IL-5), interleukin 13 (IL-13), interleukin 6 (IL-6), interleukin 9 (IL-9), interleukin 10 (IL-10), interferon gamma (IFN-γ), tumor necrosis factor alpha (TNF-α), interleukin 17A (IL-17A), interleukin 17F (IL-17F), interleukin 4 (IL-4) and interleukin 22 (IL-22)) in pooled human PBMC obtained from eight donors was determined as follows. PBMC from eight donors were pooled, then adjusted to a density of 2×10^6 cells/mL, stimulated with 100 ng/mL of anti-CD3 and 100 ng/mL of anti-CD28 antibodies and treated with 30 μM compound 10. Supernatant from these cells was taken on day 2 post-stimulation and the levels of IL-5, IL-13, IL-6, IL-9, IL-10, IFN-γ, TNF-α, IL-17A, IL-17F, IL-4 and […] were determined by ELISA using LEGENDplex™ bead-based immunoassays from BioLegend (San Diego, Calif.) according to the manufacturer's instructions.

Another experiment addresses GPR174 (Homo sapiens, UniProt Q9BXC1). As to the kind of experiment: CRE-Luc reporter Gs signaling assay with GPR174. Set-up: host or cells: HEK293 or CHO cell lines (ATCC). The conditions noted are these: for Gs pathway in the presence of GPR174 (CRE-Luc reporter): increasing concentrations of compound; for Fold decrease in Gs signaling activity / EC50: pCRE-Luc reporter; for EC50: multiple values = separate experiments.

The next experiment relates to human PBMC. As to the kind of experiment: IL-2 in supernatants of human PBMC stimulated with anti-CD3 and anti-CD28, ELISA. The conditions noted are these: human PBMC donor 8, 24 hours post-stimulation; compound 10 1 μM, ZM-241385 0.1 μM, APCP 10 μM; FIG. 71. The protocol: Human PBMCs, obtained from a human volunteer donor (donor 8), were dispensed in X-vivo15 media (Lonza) supplemented with Glutamax, penicillin and streptomycin, at density of 1×10^6 cells/well in a 96-well flat-bottom plate and were cultured in quadruplicate for 3 hours in the presence of:
GPR174 inhibitory compound 10 (1 μM);
CD73 inhibitory compound, adenosine 5′-(a,p-methylene)diphosphate sodium salt (APCP, Tocris, 10 μM);
Combinations of the above agents;
After which 1 μg/mL anti-CD3 antibody (UCHT1) and 0.1 μg/mL anti-CD28 antibody (CD28.2) were added to activate T cells. Supernatants from these cells were collected at 24 hours post-stimulation and the levels of IL-2 were determined by ELISA.

The test system of a further experiment is purified human T cells. As to the kind of experiment: Cytokines of purified human T cells activated with K562 cells, with or without PS liposomes, tumor exosomes, GPR174 inhibitor. The conditions noted are these: for IFN-γ FC (fold change), Compound 10 vs Vehicle / IL-2 FC (fold change), Compound 10 vs Vehicle / TNF FC (fold change), Compound 10 vs Vehicle: stimulated human T cells, compound 10, 0.5 μM. How it is done:
Purified human T cells (Astarte Biologies, Inc) were activated in the presence of K562 cells (as artificial antigen presenting cells) presenting anti-CD3 and CD80.Fc via Fc-receptor binding, in 96-well U-bottom plates containing X-vivo-15 media in the following conditions:
Anti-CD3 (clone UCHT1, 0.5 μg/mL)
CD80.Fc fusion protein (R&D Systems, 2 μg/mL)
Exosomes from human breast cancer tumor cell line MDA-MB-231 (12 μg/mL) (EXOP-105A-1 from System Biosciences, LLC)
GPR174 inhibitor (compound 10, 0.5 μM or 3 μM)
Cells were cultured for 24 hours and supernatants were evaluated for cytokine concentrations (Legendplex, Biolegend).

The mark [1] stands for this setting: Example 9, day 2, PBMC of eight donors, 30 μM.
Where [2] appears, read: in the presence of Exosomes (human breast cancer tumor-derived).
The mark [3] stands for this setting: in the presence of PS Liposomes.

GPR174, sequence (Q9BXC1 whole entry): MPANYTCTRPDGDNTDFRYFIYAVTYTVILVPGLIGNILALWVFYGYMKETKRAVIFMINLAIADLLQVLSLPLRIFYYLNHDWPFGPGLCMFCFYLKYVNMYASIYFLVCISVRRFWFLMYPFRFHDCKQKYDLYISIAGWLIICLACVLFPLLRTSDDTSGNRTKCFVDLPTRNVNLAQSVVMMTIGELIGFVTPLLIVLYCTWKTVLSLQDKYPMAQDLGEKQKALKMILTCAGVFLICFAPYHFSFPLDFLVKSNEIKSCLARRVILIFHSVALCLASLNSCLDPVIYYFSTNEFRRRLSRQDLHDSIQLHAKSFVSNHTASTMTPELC

The EC50 is the concentration needed to bring the measured effect to its halfway point. Low readings indicate a more potent agent, high ones a less potent agent. In the case of `O=C(c1ccccc1)N1CCN(c2cc(N3CCCCC3)c(F)cc2[N+](=O)[O-])CC1` [compound 6], the “increase of IL-2 levels” value in the experiment with mouse splenocytes (GPR174-KO splenocytes, NECA 0.1 μM, compounds 10, 6 0.3 μM, ZM-241385 0.2 μM, FIG. 70B) is listed as “modest off-target activity”. Also, the “IL-2 in culture supernatants (fold over vehicle)” value with human PBMCs (Example 6) is “increased IL-2 levels”. In addition, at GPR174, the “Gs pathway in the presence of GPR174 (CRE-Luc reporter)” value is “inhibited”; the “Fold decrease in Gs signaling activity” value amounted to 3.8 fold; the EC50 was 400 nM and 300 nM.
Turning to `CC1CCN(c2cc(N3CCN(S(=O)(=O)c4ccccc4)CC3)c([N+](=O)[O-])cc2F)CC1` [compound 10], the “increase of IL-2 levels” value in the experiment on mouse splenocytes (WT splenocytes, no NECA, compound 10 1 μM, ZM-241385 0.1 μM, FIG. 68A) was “greater than 4 fold”. Besides, the “IFN-γ in culture supernatants, fold over vehicle” value with human PBMCs (Example 6, day 2, 1, 3, 10 μM) is “increased interferon gamma (IFN-γ) in a dose-dependent manner”. Also, the “IL-2 in culture supernatants (fold over vehicle)” value in the experiment with human PBMCs (Example 6) is “increased IL-2 levels in a dose-dependent manner”. In addition, the “IL-2 in culture supernatants” value in the experiment on human PBMCs (Example 8, day 3, single donor, 3, 10, 30, 60 μM) is “increased IL-2 levels in culture supernatants in a dose-dependent manner”. In the experiment with human PBMCs (setting [1]), the “IFN-γ in culture supernatants, fold over vehicle” value was “statistically significant fold increase”; the “IL-6 in culture supernatants, fold over vehicle” value is recorded as “statistically significant fold increase”; the “IL-10 in culture supernatants, fold over vehicle” value is “statistically significant fold increase”; the “IL-17A in culture supernatants, fold over vehicle” value is “statistically significant fold decrease”. In addition, in the experiment on human PBMCs (setting [1]), the “TNF-α in culture supernatants, fold over vehicle” value is reported as “statistically significant fold increase”. For the same compound, the “IL-2 in culture supernatants, fold over vehicle, average” value in the experiment on human PBMCs (Example 9, day 2, eight donors, 30 μM) is on record as “about 5 fold”. The “increase of IL-2 levels” value in the experiment on human PBMC is given as 1.4 fold. In addition, at GPR174, the “Gs pathway in the presence of GPR174 (CRE-Luc reporter)” value was “inhibited”; the “Fold decrease in Gs signaling activity” value is given as 5.1 fold; the EC50 was 200 nM and 500 nM. Moreover, the “IL-2 production, fold change by compound 10 in the absence of PS liposomes (FIG. 65)” value with purified human T cells (compound 10 3 μM) is on record as 1.3 fold. Besides, the “IL-2 production, fold change by compound 10 in the presence of PS liposomes (FIG. 65)” value in the experiment on purified human T cells (compound 10 3 μM, PS liposomes 1 μM) was determined as 2.4 fold. Moreover, in the experiment on purified human T cells (setting [2]), the “IFN-γ FC (fold change), Compound 10 vs Vehicle” value (“IFN-γ FC (fold change)” for short) amounted to 1.4; the “IL-2 FC (fold change), Compound 10 vs Vehicle” value (shortened to “IL-2 FC (fold change)”) came out at 1.7; the “TNF FC (fold change), Compound 10 vs Vehicle” value (shortened to “TNF FC (fold change)”) is 1.7. Further, in the experiment with purified human T cells (in the presence of Media), the “IFN-γ FC (fold change)” value is 1.1; the “IL-2 FC (fold change)” value is 1.2; the “TNF FC (fold change)” value was found to be 1.4. Further, in the experiment with purified human T cells (setting [3]), the “IFN-γ FC (fold change)” value stood at 1.3; the “IL-2 FC (fold change)” value is given as 1.4; the “TNF FC (fold change)” value was 1.7.

These data come from patent US20200345725A1, “Methods and Compositions for Treating Cancer” (Omeros Corporation, priority 2019, published 2020).
